Results reported in US12186401B2, “Amide-based proteolysis modulators of B-rapidly accelerated fibrosarcoma (BRAF) and associated uses” (Ontario Institute for Cancer Research (OICR), priority 2019, dated 2025).
Where two headings read alike, the source gives them in different places.

Experiments:
B-Raf (V600E) (h) = B-Raf (V600E) (h) (Homo sapiens, UniProt P15056, V600E); assay: Kinase inhibition assay B-Raf (V600E) (h), radiometric 33P-ATP filter assay; format: biochemical; conditions: read-out: IC50(nM) BRAF^V600E
Protocol: (§1) b-Raf (V599E) (h) was incubated with 25 mM Tris/HCl pH 7.5, 0.2 mM EGTA, 10 mM DTT, 0.01% Triton X-100, 0.5 mM, sodium orthovandate, 0.5 mM […], 1% glycerol, 34 nM unactive MEK1, 69 nM unactive MAPK2, 0.5 mg/mL myelin basic protein, and 10 mM Magnesium acetate and […] (specific activity and concentration as required). The reaction was initiated by the addition of the Mg/ATP mix. After incubation for 40 minutes at room temperature, the reaction was stopped by the addition of phosphoric acid to a concentration of 0.5%. 10 μL of the reaction was then spotted onto a P30 filtermat and washed four times for 4 minutes in 0.425% phosphoric acid and once in methanol prior to drying and scintillation counting. Similar protocols were used for other kinase assays employing the kinase of interest to generate the data in Table 1.

CRAF [1] = target: T1, CRAF (Homo sapiens, UniProt P04049); assay: Kinase inhibition assay CRAF (similar protocol); format: biochemical
Protocol: as §1

ARAF [2] = target: T2, ARAF (Homo sapiens, UniProt P10398); assay: Kinase inhibition assay ARAF (similar protocol); format: biochemical
T2 sequence (P10398 1-606): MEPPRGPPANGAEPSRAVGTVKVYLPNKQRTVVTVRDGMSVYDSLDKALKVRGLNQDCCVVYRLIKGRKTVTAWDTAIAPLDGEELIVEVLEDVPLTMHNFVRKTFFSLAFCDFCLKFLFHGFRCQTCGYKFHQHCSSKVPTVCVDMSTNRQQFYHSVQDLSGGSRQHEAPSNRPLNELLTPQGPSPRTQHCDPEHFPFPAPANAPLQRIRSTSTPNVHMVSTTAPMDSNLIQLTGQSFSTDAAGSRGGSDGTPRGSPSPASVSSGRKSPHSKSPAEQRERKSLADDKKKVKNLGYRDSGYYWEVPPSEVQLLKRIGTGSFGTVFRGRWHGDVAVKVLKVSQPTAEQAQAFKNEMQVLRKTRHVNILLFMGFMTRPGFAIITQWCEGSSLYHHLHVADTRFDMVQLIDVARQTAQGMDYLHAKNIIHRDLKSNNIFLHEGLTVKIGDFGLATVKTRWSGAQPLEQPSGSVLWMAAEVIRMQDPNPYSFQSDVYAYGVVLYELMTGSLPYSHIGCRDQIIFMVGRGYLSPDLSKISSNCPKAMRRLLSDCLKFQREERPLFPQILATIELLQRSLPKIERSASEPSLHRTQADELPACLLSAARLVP
Protocol: as §1

BRAF^V600E = target: T3, BRAF^V600E (Homo sapiens, UniProt P15056, V600E); assay: Cellular degradation assay, Western blot of BRAF^V600E; format: cell-based
T3 construct: A375 or SK-Mel-28 cells were obtained from ATCC; host or cells: A375 or SK-Mel-28
Protocol: (§2) Cell culture and compound treatment: A375 or SK-Mel-28 cells were obtained from ATCC and cultured in Dulbecco's Modified Eagle Media (DMEM) supplemented with 10% FBS, penicillin and streptomycin, at 37° C., 5% CO2. Cells grown in 6-well plates were treated for 24 hours with test compounds (solubilized in DMSO) or 0.1% DMSO vehicle control. Cells were harvested by first washing with 1× phosphate-buffered saline (PBS), then scrapping into 1 ml of PBS supplemented with 1 mM phenylmethylsulfonylflouride (PMSF). Cell pellets were obtained after a centrifugation at 300-350×g for 2 min, and immediately snap frozen in liquid nitrogen.
(§3) Cell lysis and Western blot analysis: Cell pellets were thawed and lysed by pipetting in lysis buffer (50 mM HEPES (pH 7.4), 150 mM NaCl, 5 mM EDTA, 0.5% NP-40, 5 mM NaF, 10% glycerol), with Roche protease inhibitor cocktail (5056489001) and phosphatase inhibitor cocktail PhosStop (4906845001) added fresh before use. The whole cell lysate was clarified by centrifugation at 15,000-20,000×g for 20 min and supernatant was collected. Total protein concentration in the clarified lysate was determination by Bradford assay (Bio-Rad), and 30-50 ug of protein was separated through SDS-PAGE, transferred onto nitrocellulose membrane and subject to standard immunoblotting protocol. Band intensities were quantified by Bio-Rad Image Lab software. Antibodies to B-Raf (sc-5284), A-Raf (sc-166771), phosphor MEK1/2, pS218/222 (sc-7995), phosphor ERK1/2 (sc-7383) were purchased from Santa Cruz; C-Raf (9422), MEK1/2 (9122), ERK1/2 (9102) from Cell Signaling; p27 (610242) from BD Biosciences. Antibody to the loading control α-tubulin was obtained from Sigma-Aldrich (6199).

BRAF = BRAF (Homo sapiens, UniProt P15056); assay: Kinase inhibition assay BRAF (similar protocol); format: biochemical
Protocol: as §1

[3] = system: MEK and ERK kinase phosphorylation; assay: Immunoblot of downstream MEK and ERK kinase phosphorylation in A375 cells; format: cell-based; conditions: A375 human melanoma cells, 24 hrs
Protocol: as §2
as §3, with “Antibodies to B-Raf (sc-5284), A-Raf (sc-166771), phosphor MEK1/2, pS218/222 (sc-7995), phosphor ERK1/2 (sc-7383) were purchased from Santa Cruz; C-Raf (9422), MEK1/2 (9122), ERK1/2 (9102) from Cell Signaling; p27 (610242) from BD Biosciences. Antibody to the loading control α-tubulin was obtained from Sigma-Aldrich (6199).” left out

ARAF [4] = target: T2, ARAF; assay: Cellular degradation assay, Western blot of ARAF; format: cell-based; design: host or cells: A375; conditions: A375 human melanoma cells, 24 hrs; negative control 100 nM, PROTAC 0 to 4000 nM
Protocol: as §2
as §3, with “Antibodies to B-Raf (sc-5284), A-Raf (sc-166771), phosphor MEK1/2, pS218/222 (sc-7995), phosphor ERK1/2 (sc-7383) were purchased from Santa Cruz; C-Raf (9422), MEK1/2 (9122), ERK1/2 (9102) from Cell Signaling; p27 (610242) from BD Biosciences. Antibody to the loading control α-tubulin was obtained from Sigma-Aldrich (6199).” left out

CRAF [5] = target: T1, CRAF; assay: Cellular degradation assay, Western blot of CRAF; format: cell-based; design: host or cells: A375; conditions: A375 human melanoma cells, 24 hrs; negative control 100 nM, PROTAC 0 to 4000 nM
Protocol: as §2
as §3, with “Antibodies to B-Raf (sc-5284), A-Raf (sc-166771), phosphor MEK1/2, pS218/222 (sc-7995), phosphor ERK1/2 (sc-7383) were purchased from Santa Cruz; C-Raf (9422), MEK1/2 (9122), ERK1/2 (9102) from Cell Signaling; p27 (610242) from BD Biosciences. Antibody to the loading control α-tubulin was obtained from Sigma-Aldrich (6199).” left out

[6] = Table 1, cells treated 24 hours, Western blot
[7] = Table 1, cells treated 24 hours, Western blot, read-out: DC50(nM) BRAF^V600E
[8] = A375 human melanoma cells, 24 hrs

T1 sequence (P04049 whole entry): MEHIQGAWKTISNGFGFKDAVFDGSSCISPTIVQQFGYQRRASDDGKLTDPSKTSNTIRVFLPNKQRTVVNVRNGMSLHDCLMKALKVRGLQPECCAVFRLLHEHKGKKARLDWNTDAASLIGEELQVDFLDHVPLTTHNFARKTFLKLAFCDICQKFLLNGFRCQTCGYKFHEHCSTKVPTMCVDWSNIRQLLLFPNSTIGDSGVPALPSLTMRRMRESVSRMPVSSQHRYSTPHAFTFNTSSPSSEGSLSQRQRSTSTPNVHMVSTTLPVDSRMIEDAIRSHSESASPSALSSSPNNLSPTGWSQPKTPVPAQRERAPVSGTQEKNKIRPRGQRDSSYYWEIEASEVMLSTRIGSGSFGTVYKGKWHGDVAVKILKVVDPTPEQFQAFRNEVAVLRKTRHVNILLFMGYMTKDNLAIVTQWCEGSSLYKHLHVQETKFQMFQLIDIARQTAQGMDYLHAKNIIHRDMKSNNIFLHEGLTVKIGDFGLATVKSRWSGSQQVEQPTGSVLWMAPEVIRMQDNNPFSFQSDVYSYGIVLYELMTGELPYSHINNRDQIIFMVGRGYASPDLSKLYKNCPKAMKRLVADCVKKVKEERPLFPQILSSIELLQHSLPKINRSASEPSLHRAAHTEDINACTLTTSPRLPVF
T3 sequence (P15056 whole entry V600E): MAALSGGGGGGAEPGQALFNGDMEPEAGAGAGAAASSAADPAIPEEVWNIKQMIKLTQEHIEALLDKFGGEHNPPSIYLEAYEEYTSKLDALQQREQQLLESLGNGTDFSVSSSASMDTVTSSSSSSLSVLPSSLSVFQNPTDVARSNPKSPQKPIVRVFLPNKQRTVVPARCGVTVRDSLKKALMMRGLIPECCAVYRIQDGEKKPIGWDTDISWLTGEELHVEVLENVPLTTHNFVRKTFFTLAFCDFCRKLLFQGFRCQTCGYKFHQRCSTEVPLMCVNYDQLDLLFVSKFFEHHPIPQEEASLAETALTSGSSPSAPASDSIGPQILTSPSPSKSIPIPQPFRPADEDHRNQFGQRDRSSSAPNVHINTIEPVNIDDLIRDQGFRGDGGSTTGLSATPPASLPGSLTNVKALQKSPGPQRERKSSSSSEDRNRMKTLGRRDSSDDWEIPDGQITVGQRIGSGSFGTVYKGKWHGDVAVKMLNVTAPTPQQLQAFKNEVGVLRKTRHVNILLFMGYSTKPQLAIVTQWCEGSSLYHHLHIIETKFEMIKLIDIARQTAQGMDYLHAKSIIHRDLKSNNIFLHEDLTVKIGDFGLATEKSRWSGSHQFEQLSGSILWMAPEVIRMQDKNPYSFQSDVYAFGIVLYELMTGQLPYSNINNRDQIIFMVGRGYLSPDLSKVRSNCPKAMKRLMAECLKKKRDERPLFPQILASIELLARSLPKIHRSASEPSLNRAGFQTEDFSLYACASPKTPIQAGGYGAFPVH
B-Raf (V600E) (h), sequence (P15056 whole entry V600E): as above
BRAF, sequence (P15056 whole entry): as the sequence (P15056 whole entry V600E) above, with E600V counted along it

SMILES | IC50 (B-Raf (V600E) (h)) | IC50 (CRAF [1]) | IC50 (ARAF [2]) | degradation of BRAF^V600E by immunoblot (FIGS. 4 and 5) (BRAF^V600E; A375 human melanoma cells, 24 hrs, listed as Pmd-PEG3-Dabrafenib#1) | DCmax(%) BRAF^V600E (BRAF^V600E; [6]) | IC50 (BRAF) | DCmax, degradation of BRAF^V600E kinase (FIG. 3C) (BRAF^V600E; A375 human melanoma cells, 24 hrs, 0 to 4000 nM) | DC50 (BRAF^V600E; A375 human melanoma cells, 24 hrs, 0 to 4000 nM, read-out: DC50, degradation of BRAF^V600E kinase (FIG. 3C)) | DC50 (BRAF^V600E; [7]) | inhibition of downstream MEK and ERK kinase phosphorylation (FIG. 3C) ([3]; negative control 100 nM, PROTAC 0 to 4000 nM) | IC50 ([3]; A-375, read-out: BRAF^V600E IC50, inhibition of downstream MEK and ERK kinase phosphorylation, 0 to 4000 nM) | degradation activity on ARAF (FIG. 3C) (ARAF [4]) | degradation activity on CRAF (FIG. 3C) (CRAF [5]) | degradation of BRAF^V600E by immunoblot (FIGS. 4 and 5) (BRAF^V600E; [8]) | degradation of BRAF^V600E by immunoblot (FIG. 3A) (BRAF^V600E; dabrafenib 20 nM, PROTAC inhibitors 50 nM)
CCCS(=O)(=O)Nc1ccc(F)c(-n2cc(-c3cncnc3)c3nc(N(C)C4CCN(C(=O)CCOCCOCCOCCNc5cccc6c5C(=O)N(C5CCC(=O)NC5=O)C6=O)CC4)ccc32)c1F (centres unmarked) [Entry 2] | 47 nM | 22 nM | > 10000 nM | No degradation | 0% |  |  |  |  |  |  |  |  |  | 
CCCS(=O)(=O)Nc1ccc(F)c(-n2cc(-c3cncnc3)c3nc(N(C)C4CCN(C(=O)CCOCCOCCOCCOCCNc5cccc6c5C(=O)N(C5CCC(=O)NC5=O)C6=O)CC4)ccc32)c1F (centres unmarked) [Entry 17, N-(3-(5-((1-(1-((2-(2,6-dioxopiperidin-3-yl)-1,3-dioxoisoindolin-4-yl)amino)-3,6,9,12-tetraoxapentadecan-15-oyl)piperidin-4-yl)(methyl)amino)-3-(pyrimidin-5-yl)-1H-pyrrolo[3,2-b]pyridin-1-yl)-2,4-difluorophenyl)propane-1-sulfonamide] | 12 nM | 167 nM | 2220 nM |  | 82% | 58 nM | 80% | 20 nM | 15 nM | inhibition of downstream MEK and ERK kinase phosphorylation | 20 nM | not ARAF and CRAF | not ARAF and CRAF |  | 
CCCS(=O)(=O)Nc1ccc(F)c(-n2cc(-c3cncnc3)c3nc(N(C)C4CCN(C(=O)CCOCCOCCOCCOCCOCCOCCNc5cccc6c5C(=O)N(C5CCC(=O)NC5=O)C6=O)CC4)ccc32)c1F (centres unmarked) [Entry 19, N-(3-(5-((1-(1-((2-(2,6-dioxopiperidin-3-yl)-1,3-dioxoisoindolin-4-yl)amino)-3,6,9,12,15,18-hexaoxaheneicosan-21-oyl)piperidin-4-yl)(methyl)amino)-3-(pyrimidin-5-yl)-1H-pyrrolo[3,2-b]pyridin-1-yl)-2,4-difluorophenyl)propane-1-sulfonamide] | 83 nM | 542 nM | 6550 nM |  | 60% |  |  |  | 100 nM |  |  |  |  | Degradation of BRAF^V600E was observed | 
CCCS(=O)(=O)Nc1ccc(F)c(-n2cc(-c3cncnc3)c3nc(N(C)C4CCN(C(=O)CCOCCOCCOCCNc5cccc6c5C(=O)N(C5CCC(=O)NC5=O)C6=O)CC4)ccc32)c1F (centres unmarked) [Entry 16, N-(3-(5-((1-(3-(2-(2-(2-((2-(2,6-dioxopiperidin-3-yl)-1,3-dioxoisoindolin-4-yl)amino)ethoxy)ethoxy)ethoxy)propanoyl)piperidin-4-yl)(methyl)amino)-3-(pyrimidin-5-yl)-1H-pyrrolo[3,2-b]pyridin-1-yl)-2,4-difluorophenyl)propane-1-sulfonamide] | 65 nM | 532 nM | > 10000 nM |  | 60% |  |  |  | 10 nM |  |  |  |  | Degradation of BRAF^V600E was observed | 
CC(C)(C)c1nc(-c2cccc(NS(=O)(=O)c3c(F)cccc3F)c2F)c(-c2ccnc(N)n2)s1 [dabrafenib, reference compound] |  |  |  |  |  |  |  |  |  |  |  |  |  |  | no degradation
CCCS(=O)(=O)Nc1ccc(F)c(-n2cc(-c3cncnc3)c3nc(N(C)C4CCN(CC)CC4)ccc32)c1F [Entry 15, N-[3-[5-[(1-ethylpiperidin-4-yl)-methylamino]-3-pyrimidin-5-ylpyrrolo[3,2-b]pyridine-1-yl]-2,4-difluorophenyl]propane-1-sulfonamide, reference compound] | 31 nM | 64 nM | 323 nM |  | 0% |  |  |  |  |  |  |  |  |  | 
CCCS(=O)(=O)Nc1ccc(F)c(-n2cc(-c3cncnc3)c3nc(N(C)C4CCN(C(=O)CCC(=O)NCCCOCCOCCOCCCNc5cccc6c5C(=O)N(C5CCC(=O)NC5=O)C6=O)CC4)ccc32)c1F (centres unmarked) [Entry 21, 4-(4-((1-(2,6-Difluoro-3-(propylsulfonamido)phenyl)-3-(pyrimidin-5-yl)-1H-pyrrolo[3,2-b]pyridin-5-yl)(methyl)amino)piperidin-1-yl)-N-(3-(2-(2-(3-((2-(2,6-dioxopiperidin-3-yl)-1,3-dioxoisoindolin-4-yl)amino)propoxy)ethoxy)ethoxy)propyl)-4-oxobutanamide] | 82 nM | 468 nM | 3340 nM |  | 29% |  |  |  | 20 nM |  |  |  |  | Degradation of BRAF^V600E was observed | 
CCCS(=O)(=O)Nc1ccc(F)c(-n2cc(-c3cncnc3)c3nc(N(C)C4CCN(C(=O)CCOCCOCCOCCOCCOCCNc5cccc6c5C(=O)N(C5CCC(=O)NC5=O)C6=O)CC4)ccc32)c1F (centres unmarked) [Entry 18, N-(3-(5-((1-(1-((2-(2,6-dioxopiperidin-3-yl)-1,3-dioxoisoindolin-4-yl)amino)-3,6,9,12,15-pentaoxaoctadecan-18-oyl)piperidin-4-yl)(methyl)amino)-3-(pyrimidin-5-yl)-1H-pyrrolo[3,2-b]pyridin-1-yl)-2,4-difluorophenyl)propane-1-sulfonamide] | 25 nM | 223 nM | 3620 nM |  | 73% | 66 nM |  |  | 50 nM |  |  |  |  | Degradation of BRAF^V600E was observed | 
CCCS(=O)(=O)Nc1ccc(F)c(-n2cc(-c3cncnc3)c3nc(N(C)C4CCN(C(=O)CCOCCOCCOCCOCCOCCOCCOCCOCCNc5cccc6c5C(=O)N(C5CCC(=O)NC5=O)C6=O)CC4)ccc32)c1F (centres unmarked) [Entry 20, N-(3-(5-((1-(1-((2-(2,6-dioxopiperidin-3-yl)-1,3-dioxoisoindolin-4-yl)amino)-3,6,9,12,15,18,21,24-octaoxaheptacosan-27-oyl)piperidin-4-yl)(methyl)amino)-3-(pyrimidin-5-yl)-1H-pyrrolo[3,2-b]pyridin-1-yl)-2,4-difluorophenyl)propane-1-sulfonamide] | 85 nM | 592 nM | 4910 nM |  | 40% |  |  |  | 75 nM |  |  |  |  | Degradation of BRAF^V600E was observed | 
